Data set [1] has as its system S. pyogenes. As to the kind of experiment: Broth microdilution MIC (Example 11). Particulars: Streptococcus pyogenes.
The test system of data set [2] is S. pneumoniae. Particulars: S. pneumoniae MMX 6837 (ATCC 49619); cited from earlier work.
In data set [3] the test system is S. pneumoniae. As to the kind of experiment: Broth microdilution MIC (Example 11). Particulars: Streptococcus pneumoniae. For orientation: Broth dilution looks for growth in wells or tubes with falling amounts of substance.
The subject of data set [4] is S. agalactiae. As to the kind of experiment: Broth microdilution MIC (Example 11). Particulars: Streptococcus agalactiae.
The subject of data set [5] is B. cenocepacia. Briefly: FIC checkerboard assay. Type of data set: cell-based. Particulars: for MIC: Burkholderia cenocepacia, read-out: Drug B MIC.
The nature of data set [6]: Particle size distribution of exposure aerosols (In-Tox Mercer Impactor). Particulars: rat efficacy study exposure atmospheres.
Data set [7] concerns P. aeruginosa. As to the kind of experiment: FIC checkerboard assay. The class given is cell-based. Particulars: Pseudomonas aeruginosa, read-out: Drug B MIC.
Data set [8] has as its system Burkholderia spp. Briefly: organism not typed. Type of data set: cell-based. Particulars: read-out: Drug B MIC.
For data set [9], the system named is B. cepacia. As to the kind of experiment: FIC checkerboard assay. The class given is cell-based. Particulars: Burkholderia cepacia, read-out: Drug B MIC.
Data set [10] deals with P. aeruginosa. As to the kind of experiment: MIC against CF bacterial strains (Example 5). Particulars: Pseudomonas aeruginosa.
Data set [11] deals with Achromobacter spp. Briefly: MIC against CF bacterial strains (Example 5).
For data set [12], the system named is B. multivorans (cepacia complex). Briefly: MIC against CF bacterial strains (Example 5). Particulars: Burkholderia multivorans, strain BC5b. The class given is cell-based. The procedure:
(§1) A range of CF-isolated strains of Mycobacterium avium and Mycobacterium abscessus were included; which allows for understanding of the activity against non-tubercular Mycobacteria (NTM). Two distinct bismuth-thiol compounds were evaluated, including BisEDT and BisBDT. […] The CF-isolates of greater clinical relevance, including both M abscessus spp. and Burkholderia spp., were both consistently found to be much more susceptible to BisEDT and BisBDT.

Data set [13] deals with B. cepacia (cepacia complex). Briefly: MIC against CF bacterial strains (Example 5). The class given is cell-based. Particulars: Burkholderia cepacia, strain BC17. The protocol:
as §1

Data set [14] has as its system B. cenocepacia (B cepacia complex). Briefly: MIC against CF bacterial strains (Example 5).
Data set [15] deals with S. maltophilia. As to the kind of experiment: MIC against CF bacterial strains (Example 5). Particulars: Stenotrophomonas maltophilia.
Data set [16] relates to S. aureus ATCC 29213. Particulars: control strain ATCC 29213; per CLSI M100-S24 or provided by Microbion; cited from earlier work.
The subject of data set [17] is M. abscessus complex. Briefly: MIC against CF bacterial strains (Example 5). Particulars: Mycobacteroides abscessus, read-out: MIC. The class given is cell-based, Mycobacterium abscessus. The protocol:
as §1

Data set [18] relates to Bacteroides fragilis. Particulars: B. fragilis MMX 123 (ATCC 25285); cited from earlier work.
The test system of data set [19] is Staphylococcus aureus (MRSA). Briefly: Broth microdilution MIC (Example 11).
Data set [20] concerns vancomycin-intermediate Staphylococcus aureus (VISA). Briefly: Broth microdilution MIC (Example 12). Particulars: Staphylococcus aureus, NRS13 / VISA, read-out: MIC values.
The subject of data set [21] is Clostridium difficile. Particulars: C. difficile MMX 4381 (ATCC 700057); cited from earlier work.
In data set [22] the test system is E. faecalis. Briefly: Broth microdilution MIC (Example 11). Particulars: Enterococcus faecalis, VRE, VRE Lev^R Cip^R Ery^R.
The mark [23] stands for this setting: S. pyogenes MMX 3820, ERY^R CLI^R.
[24] abbreviates: S. pyogenes MMX 3929, ERY^R CC^R.
Setting [25] is: S. pyogenes MMX 5091, ERY^R CC^R.
Where [26] appears, read: ATCC49619, S. pneumoniae MMX 6837 (ATCC 49619), QC.
The mark [27] stands for this setting: S. pneumoniae MMX 880, Lev^R SXT^R CC^R Ery^R Pen^R.
Where [28] appears, read: S. pneumoniae MMX 937, Mem^R SXT^R CC^R Ery^R Pen^R.
[29] abbreviates: S. pneumoniae MMX 3959, CC^R Ery^R.
The mark [30] stands for this setting: S. pneumoniae MMX 5440, Mem^R SXT^R CC^R Ery^R Pen^R.
Setting [31] is: S. pneumoniae MMX 5445, Mem^R SXT^R CC^R Ery^R Pen^R.
Setting [32] is: S. pneumoniae MMX 8133, Mem^R SXT^R CC^R Ery^R Pen^R.
Setting [33] is: S. agalactiae MMX 3741, ERY^R CC^R.
Where [34] appears, read: S. agalactiae MMX 3743, ERY^R CC^R.
Setting [35] is: S. agalactiae MMX 4077, ERY^R CC^R.
The mark [36] stands for this setting: S. agalactiae MMX 4079, ERY^R CC^R Pen^R MEM^R.
[37] abbreviates: S. agalactiae MMX 4086, ERY^R CC^R.

In brackets after ≈: the same amount, converted by molar mass. Several values for one entry are separate records, joined by “and”; a condition that tells them apart may be missing. Equal entries are not always repeated. Where two headings read alike, the source gives them in different places. Some results are limits rather than exact numbers.

On to `CC1(C)S[C@@H]2[C@H](NC(=O)Cc3ccccc3)C(=O)N2[C@H]1C(=O)O` [Penicillin], for which the MIC in data set [1] (S. pyogenes MMX 3068, Ery^R) is at most 0.008 µg/mL; in data set [1] (setting [23]) it was at most 0.008 µg/mL; in [1] (S. pyogenes MMX 3919, ERY^R), at most 0.008 µg/mL; in data set [1] (setting [24]), at most 0.008 µg/mL; in [1] (setting [25]), at most 0.008 µg/mL; in [3] (setting [26]), 0.25 µg/mL (≈ 0.748 µM). Further, the minimum inhibitory concentration (MIC) in [3] (setting [27]) stood at 2 µg/mL (≈ 5.98 µM); in data set [3] (setting [28]), 4 µg/mL (≈ 12 µM); in [3] (setting [29]), 0.12 µg/mL (≈ 0.359 µM); in data set [3] (setting [30]), 4 µg/mL (≈ 12 µM); in data set [3] (setting [31]), 4 µg/mL (≈ 12 µM); in data set [3] (setting [32]), 4 µg/mL (≈ 12 µM). Further, the MIC was 0.03 µg/mL (≈ 0.0897 µM) in [4] (setting [33]); 0.06 µg/mL (≈ 0.179 µM) in data set [4] (setting [34]); 0.06 µg/mL (≈ 0.179 µM) in [4] (setting [35]); 2 µg/mL (≈ 5.98 µM) in data set [4] (setting [36]); 0.06 µg/mL (≈ 0.179 µM) in [4] (setting [37]). In data set [2], the “MIC, CLSI QC range” value was “(0.25-1) μg/mL”.
For `NC[C@H]1O[C@H](O[C@H]2[C@H](O)[C@@H](O[C@H]3O[C@H](CO)[C@@H](O)[C@H](N)[C@H]3O)[C@H](N)C[C@@H]2N)[C@H](N)C[C@@H]1O` [Tobramycin, reference compound], the FICB is 0.5 in data set [5] (B. cenocepacia 548, FIC of Tobramycin in combination with BisEDT, per checkerboard row); 0.5 and 1 in [5] (B. cenocepacia 813, FIC of Tobramycin in combination with BisEDT, per checkerboard row). Moreover, the MICB in data set [5] (B. cenocepacia 548, MIC of Tobramycin in combination with BisEDT, per checkerboard row) is 8 µg/mL and 16 µg/mL. For the same compound, the MIC in data set [5] (B. cenocepacia 548, Tobramycin alone (panel with BisEDT)) was determined as 32 µg/mL; in [5] (B. cenocepacia 813, Tobramycin alone (panel with BisEDT)), 256 µg/mL; in data set [7] (P. aeruginosa 6977, Tobramycin alone (checkerboard with BisEDT)), 128 µg/mL; in data set [7] (P. aeruginosa 7745, Tobramycin alone (checkerboard with BisEDT)), 0.5 µg/mL; in [7] (P. aeruginosa 8798, Tobramycin alone (checkerboard with BisEDT)), 0.016 µg/mL; in data set [7] (P. aeruginosa 9108, Tobramycin alone (checkerboard with BisEDT)), 0.5 µg/mL. Also, the MIC is 128 µg/mL in data set [7] (Tobramycin alone, FIC panel with BisEDT, P. aeruginosa 6322); above 256 µg/mL in data set [8]; 32 µg/mL in data set [9] (B. cepacia 546, Tobramycin alone (checkerboard with BisEDT)); 16 µg/mL in data set [9] (B. cepacia 1793, Tobramycin alone (checkerboard with BisEDT)). Moreover, in data set [6], the “MMAD of exposure aerosol” value stood at 2.81 μm.
As for `NCC[C@H](O)C(=O)N[C@@H]1C[C@H](N)[C@@H](O[C@H]2O[C@H](CN)[C@@H](O)[C@H](O)[C@H]2O)[C@H](O)[C@H]1O[C@H]1O[C@H](CO)[C@@H](O)[C@H](N)[C@H]1O` [Amikacin, reference compound], the FICB in data set [5] (B. cenocepacia 548, FIC of Amikacin in combination with BisEDT, per checkerboard row) is 0.25 and 0.5; in data set [5] (B. cenocepacia 813, FIC of Amikacin in combination with BisEDT, per checkerboard row) it was 0.5 and 1. In addition, the minimal inhibitory concentration (MIC) is 128 µg/mL in data set [5] (B. cenocepacia 548, Amikacin alone (panel with BisEDT)); above 256 µg/mL in data set [5]; 16 µg/mL (≈ 27.3 µM) in data set [10]; above 64 µg/mL in data set [10] (strain AGR14, Multi-drug resistant); above 64 µg/mL in data set [10] (strain MR14, Multi-drug resistant); above 64 µg/mL in data set [11]. The minimum inhibitory concentration (MIC) is 64 µg/mL (≈ 109 µM) in data set [11] (Achromobacter); above 64 µg/mL in data set [12]; above 64 µg/mL in data set [13]; 64 µg/mL in data set [7] (Amikacin alone, FIC panel with BisEDT, P. aeruginosa 6322); 16 µg/mL in [7] (P. aeruginosa 6977, Amikacin alone (checkerboard with BisEDT)); 4 µg/mL in [7] (P. aeruginosa 7745, Amikacin alone (checkerboard with BisEDT)). In addition, the minimum inhibitory concentration (MIC) in [7] (P. aeruginosa 8798, Amikacin alone (checkerboard with BisEDT)) was 128 µg/mL; in data set [7] (P. aeruginosa 9108, Amikacin alone (checkerboard with BisEDT)), 4 µg/mL; in data set [14] (Burkholderia cenocepacia) it was above 64 µg/mL; in data set [14] (strain AU197), above 64 µg/mL; in data set [8] it was above 256 µg/mL; in data set [15], 64 µg/mL (≈ 109 µM). The MIC in data set [9] (B. cepacia 546, Amikacin alone (checkerboard with BisEDT)) was 64 µg/mL; in data set [9] (B. cepacia 1793, Amikacin alone (panel with BisEDT)), 32 µg/mL; in [17] (AMT0130-8, M abscessus/massiliense complex) it was 16 µg/mL (≈ 27.3 µM); in data set [17] (AMT153-9, M abscessus/massiliense complex) it was 32 µg/mL (≈ 54.6 µM); in data set [17] (AMT0493-2, M abscessus/massiliense complex, Amikacin resistant), above 64 µg/mL; in data set [17] (ATCC19977, ATCC 19977, M abscessus/massiliense complex, Macrolide resistant (inducible)), 8 µg/mL (≈ 13.7 µM). Besides, in [16], the “Expected MIC: goal (acceptable range)” value is reported as 2 (1-4) mcg/mL.
For the compound `CCC[C@@H]1C[C@@H](C(=O)N[C@@H]([C@H]2O[C@H](SC)[C@H](O)[C@@H](O)[C@H]2O)[C@H](C)Cl)N(C)C1` [clindamycin], the MIC is 0.06 µg/mL (≈ 0.141 µM) in [1] (S. pyogenes MMX 3068, Ery^R); 1 µg/mL (≈ 2.35 µM) in data set [1] (setting [23]); 0.12 µg/mL (≈ 0.282 µM) in [1] (S. pyogenes MMX 3919, ERY^R); above 8 µg/mL in data set [1] (setting [24]); above 8 µg/mL in data set [1] (setting [25]); 0.06 µg/mL (≈ 0.141 µM) in [3] (setting [26]). Further, the MIC in data set [3] (setting [27]), in data set [3] (setting [28]), in data set [3] (setting [29]), in data set [3] (setting [30]), in data set [3] (setting [31]) and in data set [3] (setting [32]) was above 8 µg/mL in each case. Moreover, the minimal inhibitory concentration (MIC) was 0.12 µg/mL (≈ 0.282 µM) in data set [19] (ATCC29213|MRSA|MSSA, S. aureus MMX 101 (ATCC 29213), QC, MSSA); above 32 µg/mL in data set [19] (MRSA, S. aureus MMX 5373, MRSA Lev^R Cip^R CC^R Ery^R Ox^R); above 32 µg/mL in [19] (MRSA, S. aureus MMX 6311, MRSA Lev^R Cip^R CC^R Ery^R Ox^R); 0.12 µg/mL (≈ 0.282 µM) in data set [19] (MRSA, S. aureus MMX 9203, MRSA Lev^R Cip^R Ery^R Ox^R); 0.12 µg/mL (≈ 0.282 µM) in [19] (MRSA, S. aureus MMX 9204, MRSA Lev^R Cip^R Ery^R Ox^R); above 32 µg/mL in [19] (MRSA, S. aureus MMX 9205, MRSA Lev^R Cip^R CC^R Ery^R Ox^R). In addition, the minimum inhibitory concentration (MIC) in [4] (setting [33]) is above 8 µg/mL; in data set [4] (setting [34]), above 8 µg/mL; in [4] (setting [35]) it was above 8 µg/mL; in [4] (setting [36]), above 8 µg/mL; in data set [4] (setting [37]), above 8 µg/mL; in data set [20], at least 4 µg/mL. Also, the MIC in data set [22] (E. faecalis MMX 8960), in data set [22] (E. faecalis MMX 8961) and in [22] (E. faecalis MMX 8962) was above 32 µg/mL each time. For the same compound, the “MIC, CLSI QC range” value in [18] is “(0.5-2)^1 ^ pg/mL”; in data set [21], “(2-8) pg/mL”.

Broadly, the MIC is the lowest concentration found to suppress growth.

Values taken from US11464749B2, “Bismuth-thiol compositions and methods of use” (Microbion Corporation, priority 2018, dated 2022).
